Measurements from the supplement of paper PMC11919725.

What was measured:
Jurkat [1] = assay: confluency relative to DMSO, 18 h (ratio); higher = more viable
Method in brief: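 Jurkat or primary CD4+/CD8+ T cells (naive, or activated 48 h with CD3/CD28 Dynabeads) were treated 18 h with compound at 1 nM–10 µM (log10 steps) at 37 °C, 5% CO2. Then 100 µl of suspension went into 96-well plates with IncuCyte Cytotox Dye and alamarBlue. Confluency came from IncuCyte phase-contrast imaging (×10, five images per well, hourly over 3 h) using the Basic Analyzer. Values are normalised to mean DMSO controls.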

Jurkat [2] = assay: metabolic activity relative to DMSO, 18 h (ratio); higher = more viable
Method in brief: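 Metabolic activity was expressed relative to the mean of vehicle control wells. Jurkat cells or primary CD4+/CD8+ T cells, either naive or activated for 48 h with CD3/CD28 Dynabeads, were exposed to compound from 1 nM to 10 µM in log10 steps for 18 h at 37 °C, 5% CO2. Aliquots of 100 µl of suspension were moved to 96-well plates containing alamarBlue (10% v/v final), and fluorescence was read after 3.5 h on a FluoStar Omega at excitation 544 nm and emission 584 nm.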

Jurkat [3] = assay: cytotoxicity relative to DMSO, 18 h (ratio); higher = less cell death (drugs called cytotoxic fall below 1)
Method in brief: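 Cytotoxicity was measured by IncuCyte fluorescence imaging after confluency correction and normalisation to mean control values. Cells (Jurkat, or primary CD4+/CD8+ T cells that were naive or pre-activated 48 h with CD3/CD28 Dynabeads) received compound at 1 nM–10 µM in log10 steps for 18 h at 37 °C, 5% CO2. Imaging used ×10 magnification, five images per well, taken hourly over 3 h in 96-well plates with 250 nM final IncuCyte Cytotox Dye in 100 µl of suspension.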

Compound | confluency (Jurkat [1]; 1 nM) | confluency (Jurkat [1]; 10 nM) | confluency (Jurkat [1]; 100 nM) | confluency (Jurkat [1]; 1000 nM) | confluency (Jurkat [1]; 10000 nM) | metabolic activity (Jurkat [2]; 1 nM) | metabolic activity (Jurkat [2]; 10 nM) | metabolic activity (Jurkat [2]; 100 nM) | metabolic activity (Jurkat [2]; 1000 nM) | metabolic activity (Jurkat [2]; 10000 nM) | cytotoxicity (Jurkat [3]; 1 nM) | cytotoxicity (Jurkat [3]; 10 nM) | cytotoxicity (Jurkat [3]; 100 nM) | cytotoxicity (Jurkat [3]; 1000 nM) | cytotoxicity (Jurkat [3]; 10000 nM)
COc1ccc(-c2ccc3c(N4CCOCC4C)nc(N4CCOCC4C)nc3n2)cc1CO (stereo not given) [AZD-8055] | 0.982 | 1 | 0.96 | 0.99 | 0.99 | 0.971 | 0.823 | 0.622 | 0.572 | 0.537 | 0.884 | 0.815 | 0.84 | 0.834 | 0.823
CC(Nc1cc(F)cc(F)c1)c1cc(C(=O)N(C)C)cc2c(=O)cc(N3CCOCC3)oc12 (stereo not given) [AZD-8186] | 0.882 | 0.901 | 0.946 | 0.826 | 0.846 | 0.891 | 1.03 | 1.01 | 1.03 | 1.08 | 0.895 | 0.858 | 0.928 | 0.803 | 0.831
CCN1CCN(Cc2ccc(Nc3ncc(F)c(-c4cc(F)c5nc(C)n(C(C)C)c5c4)n3)nc2)CC1 [Abemaciclib] | 0.952 | 1.02 | 0.98 | 0.991 | 0.818 | 1.22 | 1.24 | 1.2 | 1.15 | 0.888 | 1.04 | 1.13 | 1.06 | 1.09 | 0.718
Cc1c2oc3c(C)ccc(C(=O)NC4C(=O)NC(C(C)C)C(=O)N5CCCC5C(=O)N(C)CC(=O)N(C)C(C(C)C)C(=O)OC4C)c3nc-2c(C(=O)NC2C(=O)NC(C(C)C)C(=O)N3CCCC3C(=O)N(C)CC(=O)N(C)C(C(C)C)C(=O)OC2C)c(N)c1=O (stereo not given) [Actinomycin D] | 1.11 | 1.09 | 0.972 | 0.907 | 0.923 | 0.959 | 0.746 | 0.2 | 0.152 | 0.192 | 1.08 | 1.02 | 0.661 | 0.517 | 0.477
Cc1nc(NC(=O)N2CCCC2C(N)=O)sc1-c1ccnc(C(C)(C)C(F)(F)F)c1 (stereo not given) [Alpelisib] | 0.994 | 0.977 | 0.984 | 1.02 | 0.933 | 1.04 | 0.899 | 0.903 | 0.94 | 0.873 | 0.929 | 0.926 | 0.959 | 0.997 | 0.881
CN1CCC(c2c(O)cc(O)c3c(=O)cc(-c4ccccc4Cl)oc23)C(O)C1 (stereo not given) [Alvocidib] | 0.999 | 0.999 | 0.974 | 0.927 | 0.939 | 1.04 | 0.946 | 0.712 | 0.086 | 0.108 | 1.03 | 0.92 | 0.89 | 0.505 | 0.526
COc1cc(OC)c2c(=O)[nH]c(-c3cc(C)c(OCCO)c(C)c3)nc2c1 [Apabetalone] | 1.08 | 1.11 | 1.04 | 1.08 | 1.1 | 0.842 | 0.904 | 0.962 | 0.952 | 0.932 | 1.06 | 1.08 | 1.01 | 1.04 | 1.01
Cc1c(CN2CCN(C(=O)C(C)O)CC2)sc2c(N3CCOCC3)nc(-c3cnc(N)nc3)nc12 (stereo not given) [Apitolisib] | 0.851 | 1.06 | 0.825 | 0.998 | 0.727 | 0.857 | 0.984 | 0.899 | 0.955 | 0.781 | 0.79 | 0.992 | 0.752 | 0.937 | 0.628
COc1ccc(-c2ccc3ncc4c(c3c2)n(-c2ccc(N3CCNCC3)c(C(F)(F)F)c2)c(=O)n4C)cn1 [BGT-226] | 1.03 | 0.954 | 0.935 | 0.793 | 0.831 | 0.968 | 0.842 | 0.693 | 0.604 | 0.048 | 1.02 | 0.915 | 0.808 | 0.672 | 0.448
CCS(=O)(=O)N1CC(CC#N)(n2cc(-c3ncnc4[nH]ccc34)cn2)C1 [Baricitinib] | 0.989 | 0.95 | 0.965 | 0.879 | 0.812 | 0.956 | 1.04 | 1.22 | 1.11 | 0.878 | 0.929 | 0.913 | 1.02 | 0.869 | 0.802
O=C(C=Cc1cccc(S(=O)(=O)Nc2ccccc2)c1)NO [Belinostat] | 1.04 | 1.07 | 0.966 | 1.02 | 0.87 | 0.982 | 1.06 | 1.09 | 0.811 | 0.635 | 1.08 | 1.14 | 1.07 | 1.18 | 0.932
Cn1cnc2c(F)c(Nc3ccc(Br)cc3F)c(C(=O)NOCCO)cc21 [Binimetinib] | 1 | 1.01 | 0.975 | 0.959 | 0.989 | 1.13 | 1.12 | 0.989 | 0.909 | 0.933 | 1.13 | 1.22 | 1 | 0.926 | 0.948
CC(C)CC(NC(=O)C(Cc1ccccc1)NC(=O)c1cnccn1)B(O)O (stereo not given) [Bortezomib] | 0.99 | 0.969 | 0.721 | 0.934 | 0.951 | 1.2 | 1.13 | 0.556 | 0.181 | 0.149 | 1.02 | 0.944 | 0.569 | 0.531 | 0.539
COc1cc(N2CCC(N3CCN(C)CC3)CC2)ccc1Nc1ncc(Cl)c(Nc2ccccc2P(C)(C)=O)n1 [Brigatinib] | 0.851 | 1.08 | 1.14 | 1.13 | 1.07 | 0.883 | 0.946 | 0.911 | 0.83 | 0.766 | 0.701 | 0.654 | 0.641 | 0.614 | 0.565
CCOC(=O)Nc1cc(-c2ccc(C)c(NS(C)(=O)=O)c2)nn2c(C)nnc12 [Bromosporine] | 0.963 | 1 | 1.02 | 1.2 | 1.18 | 0.994 | 0.938 | 0.79 | 0.846 | 0.811 | 0.92 | 0.952 | 0.977 | 1.19 | 1.11
